Laboratory results from ChEMBL document CHEMBL1201862, “PubChem BioAssay data set” (2004).
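A five-concentration, 48-hour dose response in 96-well plates underlies each endpoint, interpolated linearly between surrounding concentrations. At the GI50, growth is halved.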 Calls of active or inactive are those of the source. Cut-off read from the data, not from the text of the source: active = GI50 up to about 1.1 µM and inactive = higher. Where a SMILES comes first, the peptide text is derived from it. [ ]: non-standard residue; d: D form. The star is where a group is joined. ξ: configuration not given here. NMeF = CN[CH](Cc1ccccc1)C(=O)O; ξNMe2Val = CC(C)C(C(=O)*)N(C)C; NMeV = CN[CH](C(=O)O)C(C)C; OtBu = CC(C)(C)O*

Legend:
Test in all cases: NCI anticancer screen, dose series, 48 h
Malme-3M = test system: Malme-3M
SK-MEL-5 = test system: SK-MEL-5
HL-60 = test system: HL-60
M14 = test system: M14
SF-268 = test system: SF-268
OVCAR-5 = test system: OVCAR-5
NCI-H226 = test system: NCI-H226
OVCAR-8 = test system: OVCAR-8
A498 = test system: A498
A549 = test system: A549
UACC-257 = test system: UACC-257
HCT-116 = test system: HCT-116
SK-MEL-28 = test system: SK-MEL-28
OVCAR-3 = test system: OVCAR-3
HOP-62 = test system: HOP-62
SK-OV-3 = test system: SK-OV-3

Measured: GI50

Cc1nc(N)nc(CCC(=O)Nc2cccc(C(F)(F)F)c2)c1-c1ccc(Cl)cc1
inactive: Malme-3M > 100 µM | SK-MEL-5 > 100 µM | HL-60 > 100 µM | M14 > 100 µM | SF-268 > 100 µM | OVCAR-5 > 100 µM | NCI-H226 > 100 µM | OVCAR-8 > 100 µM | A498 > 100 µM | A549 > 100 µM | UACC-257 > 100 µM | HCT-116 > 100 µM | SK-MEL-28 > 100 µM | OVCAR-3 > 100 µM | HOP-62 > 100 µM | SK-OV-3 > 100 µM

COC(=O)C12C3C4C1C1C2C3C41I (centres undefined)
inactive: Malme-3M > 100 µM | SK-MEL-5 > 100 µM | HL-60 > 100 µM | M14 > 100 µM | SF-268 > 100 µM | OVCAR-5 > 100 µM | NCI-H226 > 100 µM | OVCAR-8 > 100 µM | A498 > 100 µM | A549 > 100 µM | UACC-257 > 100 µM | SK-MEL-28 > 100 µM | OVCAR-3 > 100 µM | HOP-62 > 100 µM | SK-OV-3 > 100 µM

NC(=O)N/N=C(\CC1OC(=O)c2ccccc21)c1ccc([N+](=O)[O-])cc1 (centres undefined)
inactive: Malme-3M 25.3 µM | SK-MEL-5 23.1 µM | HL-60 26.3 µM | M14 34 µM | OVCAR-8 > 10 µM | A498 82 µM | A549 38.7 µM | UACC-257 67.3 µM | HCT-116 28.7 µM | OVCAR-3 49.1 µM | HOP-62 22.7 µM

CC(=O)NC1=C(NCC(C)C)C(=O)c2ccccc2C1=O
inactive: Malme-3M 18.9 µM | SK-MEL-5 19.9 µM | HL-60 2.76 µM | M14 18.2 µM | SF-268 20.5 µM | OVCAR-5 65.9 µM | NCI-H226 16 µM | OVCAR-8 22.1 µM | A498 83.2 µM | A549 54.3 µM | UACC-257 18.8 µM | HCT-116 20.3 µM | SK-MEL-28 17.1 µM | OVCAR-3 16.6 µM | HOP-62 89.5 µM | SK-OV-3 78.2 µM

O=S1(=O)COc2ccccc2-c2ncncc21
inactive: Malme-3M > 100 µM | SK-MEL-5 > 100 µM | HL-60 > 100 µM | M14 > 100 µM | SF-268 > 100 µM | OVCAR-5 > 100 µM | NCI-H226 > 100 µM | OVCAR-8 > 100 µM | A498 > 100 µM | A549 > 100 µM | UACC-257 > 100 µM | HCT-116 > 100 µM | SK-MEL-28 > 100 µM | OVCAR-3 > 100 µM | HOP-62 > 100 µM | SK-OV-3 > 100 µM

COC(=O)C1Cc2c(n(Cc3ccccc3)c3ccccc23)C(CCC(=O)O)N1C(C)C (centres undefined)
inactive: Malme-3M > 100 µM | SK-MEL-5 > 100 µM | HL-60 > 100 µM | M14 > 100 µM | SF-268 > 100 µM | OVCAR-5 > 100 µM | NCI-H226 > 100 µM | OVCAR-8 > 100 µM | A498 > 100 µM | A549 > 100 µM | UACC-257 > 100 µM | HCT-116 > 100 µM | SK-MEL-28 > 100 µM | OVCAR-3 > 100 µM | SK-OV-3 > 100 µM

CNC(=O)NCCN1N=C(C)/C(=C\c2ccccc2)CC1=O
inactive: Malme-3M > 100 µM | SK-MEL-5 > 100 µM | HL-60 > 100 µM | M14 > 100 µM | SF-268 > 100 µM | OVCAR-5 > 100 µM | NCI-H226 > 100 µM | OVCAR-8 > 100 µM | A498 > 100 µM | A549 > 100 µM | UACC-257 > 100 µM | HCT-116 > 100 µM | SK-MEL-28 > 100 µM | OVCAR-3 > 100 µM | HOP-62 > 100 µM | SK-OV-3 > 100 µM

CC[C@H]1CNC(=O)CC1CC(=O)OC (some centres undefined)
inactive: Malme-3M > 100 µM | SK-MEL-5 > 100 µM | M14 > 100 µM | SF-268 > 100 µM | OVCAR-5 > 100 µM | NCI-H226 > 100 µM | OVCAR-8 > 100 µM | A498 > 100 µM | A549 > 100 µM | UACC-257 > 100 µM | HCT-116 > 100 µM | SK-MEL-28 > 100 µM | HOP-62 > 100 µM | SK-OV-3 > 100 µM

N#[N+]c1ccccc1Sc1ccc(Cl)cc1
inactive: Malme-3M > 100 µM | SK-MEL-5 61.2 µM | HL-60 94 µM | M14 > 100 µM | OVCAR-5 > 100 µM | NCI-H226 76.9 µM | OVCAR-8 > 100 µM | A498 > 100 µM | A549 > 100 µM | UACC-257 > 100 µM | HCT-116 74.3 µM | SK-MEL-28 > 100 µM | OVCAR-3 > 100 µM | HOP-62 40.4 µM | SK-OV-3 > 100 µM

COc1cc2cnc3c4ccccc4ccc3c2cc1OC
inactive: Malme-3M > 100 µM | SK-MEL-5 > 100 µM | M14 > 100 µM | SF-268 > 100 µM | OVCAR-5 > 100 µM | OVCAR-8 > 100 µM | A498 > 100 µM | A549 > 100 µM | UACC-257 > 100 µM | SK-MEL-28 > 100 µM | OVCAR-3 > 100 µM | HOP-62 > 100 µM | SK-OV-3 > 100 µM

O=C1C2[C@@H](C(=O)N1c1ccc(Br)cc1)C13C(=CC2([N+](=O)[O-])[C@@H]2C(=O)N(c4ccc(Br)cc4)C(=O)[C@@H]21)c1ccccc1N3c1ccccc1 (some centres undefined)
inactive: Malme-3M > 100 µM | HL-60 > 100 µM | M14 > 100 µM | SF-268 11.6 µM | OVCAR-5 > 100 µM | NCI-H226 > 100 µM | OVCAR-8 > 100 µM | A549 > 100 µM | UACC-257 > 100 µM | SK-MEL-28 > 100 µM | OVCAR-3 > 100 µM

C/C(=C1/CCC/C(=C(/C)c2ccccc2)C1=O)c1ccccc1
inactive: Malme-3M 14.9 µM | SK-MEL-5 22.8 µM | HL-60 10.7 µM | M14 33.3 µM | SF-268 45.7 µM | OVCAR-5 27.2 µM | NCI-H226 17.4 µM | OVCAR-8 41.7 µM | A549 31.8 µM | UACC-257 25 µM | HCT-116 18.5 µM | SK-MEL-28 36.3 µM | OVCAR-3 64.4 µM | SK-OV-3 > 100 µM

NCCCSCC(=O)O
inactive: Malme-3M > 100 µM | SK-MEL-5 > 100 µM | SF-268 > 100 µM | OVCAR-5 > 100 µM | NCI-H226 > 100 µM | OVCAR-8 > 100 µM | A549 > 100 µM | UACC-257 > 100 µM | HCT-116 > 100 µM | SK-MEL-28 > 100 µM | OVCAR-3 > 100 µM | SK-OV-3 > 100 µM

CC(C)C(C(=O)N(C)C(Cc1ccccc1)C(=O)N(C)C(C(=O)N(C)C(C(=O)N1CCCC1C(=O)OC(C)(C)C)C(C)C)C(C)C)N(C)C (centres undefined) (ξNMe2Val-[NMeF][NMeV][NMeV]P-OtBu; configuration not given here)
inactive: Malme-3M > 10 µM | SK-MEL-5 18 µM | HL-60 37.2 µM | M14 20 µM | SF-268 63 µM | NCI-H226 > 100 µM | OVCAR-8 97.3 µM | A549 71.1 µM | UACC-257 32.8 µM | HCT-116 33.6 µM | OVCAR-3 62.5 µM | HOP-62 64.4 µM

CC(C)N1CCC2(CC1)NNc1ncccc1-n1cccc12
inactive: Malme-3M > 100 µM | SK-MEL-5 > 100 µM | HL-60 > 100 µM | M14 > 100 µM | SF-268 > 100 µM | OVCAR-5 > 100 µM | NCI-H226 > 100 µM | OVCAR-8 > 100 µM | A549 > 100 µM | UACC-257 > 100 µM | HCT-116 > 100 µM | SK-MEL-28 > 100 µM | OVCAR-3 > 100 µM | HOP-62 > 100 µM

CCOC(=O)C1(C(=O)OCC)CC=C(C)CC12C(=O)Nc1ccccc12 (centres undefined)
inactive: Malme-3M > 100 µM | SK-MEL-5 > 100 µM | HL-60 > 100 µM | M14 > 100 µM | SF-268 > 100 µM | OVCAR-5 > 100 µM | NCI-H226 > 100 µM | OVCAR-8 > 100 µM | A498 > 100 µM | A549 > 100 µM | HCT-116 > 100 µM | SK-MEL-28 > 100 µM | OVCAR-3 > 100 µM | HOP-62 > 100 µM | SK-OV-3 > 100 µM

O=C(Nc1c(O)[nH]c(=S)[nH]c1=O)c1ccc2ccccc2n1
inactive: Malme-3M > 100 µM | SK-MEL-5 > 100 µM | HL-60 > 100 µM | M14 > 100 µM | SF-268 > 100 µM | NCI-H226 > 100 µM | OVCAR-8 > 100 µM | A498 > 100 µM | A549 > 100 µM | UACC-257 > 100 µM | HCT-116 > 100 µM | SK-MEL-28 > 100 µM | OVCAR-3 > 100 µM | HOP-62 > 100 µM | SK-OV-3 > 100 µM

Cc1ccccc1-c1cc(=O)c2cc(C)c(C)c(C(=O)O)c2o1
inactive: Malme-3M > 100 µM | SK-MEL-5 > 100 µM | HL-60 > 100 µM | M14 > 100 µM | OVCAR-5 > 100 µM | NCI-H226 > 100 µM | OVCAR-8 > 100 µM | A549 > 100 µM | UACC-257 > 100 µM | HCT-116 > 100 µM | SK-MEL-28 > 100 µM | OVCAR-3 > 100 µM | HOP-62 > 100 µM | SK-OV-3 > 100 µM

Cc1ccc(S(=O)(=O)N2CCCCC2CCO)cc1 (centres undefined)
inactive: Malme-3M > 100 µM | SK-MEL-5 > 100 µM | HL-60 > 100 µM | M14 > 100 µM | SF-268 > 100 µM | OVCAR-5 > 100 µM | NCI-H226 > 100 µM | OVCAR-8 > 100 µM | A498 > 100 µM | A549 > 100 µM | UACC-257 > 100 µM | HCT-116 > 100 µM | OVCAR-3 > 100 µM | HOP-62 > 100 µM | SK-OV-3 > 100 µM
